{"source": "patent EP0439320A1", "about": "“Erectile dysfunction treatment” (YAMANOUCHI PHARMACEUTICAL CO. LTD., priority 1990, dated 1991)", "key": {"[1]": {"test_system": "penis cavernous smooth muscle of pigs", "assay": "Relaxation of isolated pig cavernous smooth muscle strip precontracted with noradrenaline (organ bath, tension recorded)", "settings": "for Time until prior response restored: contractile response to noradrenaline", "procedure": "The pig and humans cavernous smooth muscle specimens are placed in an organ bath, and the tension is recorded. […] Work was also conducted with reference compounds in the porcine tissue, measuring the contractile response to noradrenaline."}, "[2]": {"test_system": "human cavernous smooth muscle strip", "assay": "Relaxation of isolated human cavernous smooth muscle strip contracted with noradrenaline (organ bath)", "parameters": "species or system humans", "settings": "dose 10^-7 M, contracted with noradrenaline 2 x 10^-5 M, read-out: Inhibiting effect", "procedure": "The relaxing effect of compound (I) on isolated specimens of penis cavernous smooth muscle of pigs (smooth muscle strips obtained from slaughtered boards) and of humans was tested by the following method. The pig and humans cavernous smooth muscle specimens are placed in an organ bath, and the tension is recorded. In the case of human cavernous smooth muscle strip, the relaxatory effect was evaluated. The specimen was contracted with a noradrenaline dose of 2 x 10⁻⁵ M and was treated with compound (I) at a dose of 10⁻⁷ M. In Table 2, the result for human tissue is shown."}, "[3]": {"assay": "Acute toxicity test in rats", "settings": "rat, in vivo, F344 rats, single dose, 2 weeks observation, read-out: LD50 (95% confidence limits)", "procedure": "(§1) The acute toxicity of compound (I) salt was evaluated using ICR mice and F344 rats.\n(§2) compound (I) was dissolved in dimethylsulfoxide, and the same amount of Macrogol 400 (trade name) was added, and then distilled water for injection was added thereto to provide a solution of predetermined concentration. The solution was injected once each test, intravenously or subcutaneously, at a rate of 10-20 ml/kg, the maximum concentration of the administered solution being 12 mg/ml and 25 mg/ml respectively. The animals were kept under observation for 2 weeks. LD₅₀ values were determined by the up and down method (Probit method) using 5 animals."}, "[4]": {"assay": "Acute toxicity test in mice", "settings": "mouse, in vivo, single dose, 2 weeks observation, read-out: LD50 (95% confidence limits)", "procedure": "as §1, §2"}, "[5]": {"test_system": "penis erection (tumescence) and its firmness (rigidity)", "assay": "Tumescence and rigidity after intracorporeal injection in anesthetized monkeys", "assay_type": "in vivo, monkeys (Cynogos or Vervet)", "settings": "0.1 g injected into the corpus cavernosum; evaluated 5 to 120 min after injection; data only in Fig. 1", "procedure": "Tumescence and rigidity after intracorporeal injection of compound (I) were evaluated for monkeys.\nAnesthetized monkeys (Cynogos or Vervet), 4-6 kg body weight, were used for the test.\nThe animal was anesthetized with ketamine and 0.1 g of compound (I) was injected in solution into the corpus cavernosum with a tourniquet at the base of the penis; the animal was then under observation and changes in tumescence and rigidity were noted and plotted. The tourniquet was removed 5 min after the injection.\nManual and visual evaluation of tumescence and rigidity was made 5, 10, 15, 20, 30, 60 and 120 min after injection.\nThe activity of compound (I) (dose: 0.1 g) on penis erection (tumescence) and firmness (rigidity) in the anesthetized monkeys is shown in Fig. 1."}}, "note": "No end group written: not given here."}
{"compound": "CCOc1ccccc1OCCNC(C)Cc1ccc(OC)c(S(N)(=O)=O)c1", "note": "(stereo not drawn) [Compound (I), 5-[2-[2-(2-ethoxyphenoxy)ethylamino]-2-methylethyl] -2-methoxybenzene sulfonamide]", "values": [{"measurement": "full response seen (contractile response to noradrenaline)", "setting": "[1]; antagonist dose 10^-8 M, at 165 min, noradrenaline 10^-6 to 10^-8 M", "value": "At 165 min 60% of full response seen"}, {"measurement": "inhibition at 0.1 µM", "setting": "[2]", "value": 100, "unit": "%"}, {"measurement": "LD50 at 336 h", "setting": "[3]; iv, intravenous, Female", "value": 78, "unit": "mg/kg"}, {"measurement": "LD50 at 336 h", "setting": "[3]; iv, intravenous, Male", "value": 70, "unit": "mg/kg"}, {"measurement": "LD50 at 336 h", "setting": "[3]; sc, subcutaneous, Female", "value": 347, "unit": "mg/kg"}, {"measurement": "LD50 at 336 h", "setting": "[3]; sc, subcutaneous, Male", "value": 395, "unit": "mg/kg"}, {"measurement": "LD50 at 336 h", "setting": "[4]; iv, Female", "value": 103, "unit": "mg/kg"}, {"measurement": "LD50 at 336 h", "setting": "[4]; iv, Male", "value": 98, "unit": "mg/kg"}, {"measurement": "LD50 at 336 h", "setting": "[4]; sc, subcutaneous, Female", "value": 275, "unit": "mg/kg"}, {"measurement": "LD50 at 336 h", "setting": "[4]; sc, subcutaneous, Male", "value": 254, "unit": "mg/kg"}, {"measurement": "Effect on penis erection (tumescence) and firmness (rigidity)", "setting": "[5]", "value": "excellent effects of potent penis erection, tumescence and rigidity with long lasting action"}]}
{"compound": "COc1ccc(Cc2nccc3cc(OC)c(OC)cc23)cc1OC", "note": "[Papaverine]", "values": [{"measurement": "Time until prior response restored", "setting": "[1]; antagonist dose 2 x 10^-4 M", "value": 45, "unit": "min"}]}
{"compound": "Cc1ccc(N(CC2=NCCN2)c2cccc(O)c2)cc1", "note": "[Phentolamine]", "values": [{"measurement": "Time until prior response restored", "setting": "[1]; antagonist dose 7 x 10^-7 M", "value": 150, "unit": "min"}]}
{"compound": "COc1cc2nc(N3CCN(C(=O)c4ccco4)CC3)nc(N)c2cc1OC", "note": "[Prazocin]", "values": [{"measurement": "Time until prior response restored", "setting": "[1]; antagonist dose 10^-6 M", "value": 160, "unit": "min"}]}
{"compound": "vasoactive intestinal peptide (HSDAVFTDNYTRLRKQMAVKKYLNSILN; ends and bridges not checked; UniProt P01282 125-152, looked up) [VIP (vasoactive intestinal peptide)]", "values": [{"measurement": "Time until prior response restored", "setting": "[1]; antagonist dose 10^-7 M", "value": 45, "unit": "min"}]}
